The values that follow come from patent US10759767B2 (priority 2012, dated 2020).

The structures appear in SMILES notation.

Common to all, as to type: cell-based
The subject of one assay is Alternaria solani. Kind of assay: Microtest: activity against early blight caused by Alternaria solani (Alteso).
Another assay deals with Phytophthora infestans. Kind of assay: microbe, parasite or virus in culture. The following applies: for Observed efficacy: solo product.
The test system of the next assay is Botrytis cinerea. The experiment in a line: Microtest: activity against the grey mold Botrytis cinerea (Botrci).
A further assay relates to Septoria tritici. The experiment in a line: Microtest: activity against leaf blotch on wheat caused by Septoria tritici (Septtr). Conditions: solo product.
In a further assay the test system is Leptosphaeria nodorum. The experiment in a line: Microtest: activity against wheat leaf spots caused by Leptosphaeria nodorum (Leptno).
A further assay has as its system Pyricularia oryzae. Kind of assay: microbe, parasite or virus in culture. Conditions: for Observed efficacy: solo product.
Where [1] appears, read: second Septtr microtest, 63 ppm.
Where [2] appears, read: Pyricularia oryzae, 168 h, read-out: Observed efficacy.
Setting [3] is: Phytophthora infestans, 168 h, read-out: Observed efficacy.
[4] abbreviates: second Septtr microtest, 0.016 ppm.
Where [5] appears, read: second Septtr microtest, 16 ppm.

Turning to `N#Cc1c[nH]cc1-c1cccc2c1OC(F)(F)O2` [II-34, fludioxonil, reference compound], the Observed efficacy turned out to be 13% with Alternaria solani (solo product, 0.016 ppm) and 0% in the assay with Phytophthora infestans (1 ppm).
As for `CC(C)C1C2CCC1c1c(NC(=O)c3cn(C)nc3C(F)F)cccc12` (centres unmarked) [II-50, isopyrazam, reference compound], the values for the Observed efficacy with Alternaria solani (solo 0.016 ppm) and in the assay with Botrytis cinerea (solo 0.016 ppm) were 15 and 6, respectively.
Take `CC(C)(C)C(O)(CCc1ccc(Cl)cc1)Cn1cncn1` (centres unmarked) [Tebuconazol]: the results for the Observed efficacy in the assay on Alternaria solani (solo 0.016 ppm), with Botrytis cinerea (solo 0.016 ppm) and in the assay on Phytophthora infestans (1 ppm) were 8, 9 and 25, respectively.
For the molecule `CCN(Cc1ccc(Cl)nc1)/C(=C/[N+](=O)[O-])NC` [Nitenpyram], the Observed efficacy turned out to be 10% in the assay with Septoria tritici (setting [1]); 2 with Alternaria solani (solo 4 ppm); 2 in the assay on Alternaria solani (solo 16 ppm); 8 in the assay with Alternaria solani (solo 63 ppm); 23 in the assay with Leptosphaeria nodorum (solo 63 ppm).
Regarding `COC(=O)N(OC)c1ccccc1COc1ccn(-c2ccc(Cl)cc2)n1` [II-66, pyraclostrobin, reference compound], the Observed efficacy is on record as 37% in the assay on Septoria tritici (second Septtr microtest, 0.004 ppm); 12 in the assay on Septoria tritici (0.001 ppm); 37 in the assay with Septoria tritici (0.004 ppm); 8 in the assay on Alternaria solani (solo 0.004 ppm). The inhibition of growth at 0.016 ppm with Alternaria solani (Alternaria solani, 168 h, solo 0.016 ppm, read-out: Observed efficacy) stood at 18%; in the assay with Leptosphaeria nodorum (Parastagonospora nodorum, 168 h, solo 0.016 ppm, read-out: Observed efficacy), 24%. Also, the inhibition of growth at 0.001 ppm with Pyricularia oryzae (setting [2]) worked out at 5%.
As for `CC(O)(Cn1cncn1)c1ccc(Oc2ccc(Cl)cc2)cc1C(F)(F)F` (centres unmarked) [I-3, 2-[4-(4-chlorophenoxy)-2-(trifluoromethyl)phenyl]-1-(1,2,4-triazol-1-yl)propan-2-ol], the inhibition of growth at 2.5e-07 ppm with Septoria tritici (Zymoseptoria tritici, 168 h, second Septtr microtest, 0.00000025 ppm, read-out: Observed efficacy) was determined as 8%. The inhibition of growth at 1e-06 ppm with Septoria tritici (Zymoseptoria tritici, 168 h, second Septtr microtest, 0.000001 ppm, read-out: Observed efficacy) was found to be 5%. Further, the inhibition of growth at 4e-06 ppm with Septoria tritici (Zymoseptoria tritici, 168 h, second Septtr microtest, 0.000004 ppm, read-out: Observed efficacy) is 14%; in the assay on Alternaria solani (Alternaria solani, 168 h, solo 0.000004 ppm, read-out: Observed efficacy), 5%; in the assay with Botrytis cinerea (Botrytis cinerea, 168 h, solo 0.000004 ppm, read-out: Observed efficacy) it was 0%. In addition, the inhibition of growth at 1.6e-05 ppm in the assay on Septoria tritici (Zymoseptoria tritici, 168 h, second Septtr microtest, 0.000016 ppm, read-out: Observed efficacy) came to 16%; in the assay with Botrytis cinerea (Botrytis cinerea, 168 h, solo 0.000016 ppm, read-out: Observed efficacy), 5%. The Observed efficacy with Septoria tritici (0.000016 ppm) is 16; in the assay on Septoria tritici (0.004 ppm), 54; in the assay on Alternaria solani (solo product, 0.000016 ppm) it was 0%. For the same molecule, the inhibition of growth at 6.3e-05 ppm was determined as 8% with Alternaria solani (Alternaria solani, 168 h, solo 0.000063 ppm, read-out: Observed efficacy); 0% in the assay with Botrytis cinerea (Botrytis cinerea, 168 h, solo 0.000063 ppm, read-out: Observed efficacy); 26% with Leptosphaeria nodorum (Parastagonospora nodorum, 168 h, solo product, 0.000063 ppm, read-out: Observed efficacy). For the same molecule, in the assay on Botrytis cinerea (Botrytis cinerea, 168 h, solo 0.063 ppm, read-out: Observed efficacy), the inhibition of growth at […] worked out at 23%. The inhibition of growth at 4 ppm in the assay on Phytophthora infestans (setting [3]) is 4%. The inhibition of growth at 16 ppm in the assay with Phytophthora infestans (setting [3]) turned out to be 4%. Besides, in the assay on Pyricularia oryzae (setting [2]), the inhibition of growth at 0.004 ppm was determined as 0%. Further, the inhibition of growth at 1 ppm in the assay on Pyricularia oryzae (setting [2]) is 37%.
Regarding `Cn1cc(C(=O)Nc2ccc(F)cc2-c2ccc(Cl)c(Cl)c2)c(C(F)F)n1` [II-6, bixafen, reference compound], the Observed efficacy with Alternaria solani (solo 0.001 ppm) amounted to 5; with Alternaria solani (solo 0.004 ppm), 38; with Botrytis cinerea (solo 0.016 ppm), 8; in the assay with Phytophthora infestans (1 ppm), 25.
Regarding `CN1COCN(Cc2cnc(Cl)s2)/C1=N\[N+](=O)[O-]` [Thiamethoxam], the Observed efficacy in the assay on Septoria tritici (second Septtr microtest, 1 ppm) amounted to 57%; in the assay on Alternaria solani (solo 1 ppm), 10; with Alternaria solani (solo 4 ppm) it was 51; in the assay with Leptosphaeria nodorum (solo 1 ppm), 22; in the assay with Leptosphaeria nodorum (solo 4 ppm), 51.
As to `CC1(C)CC/C(=C\c2ccc(Cl)cc2)C1(O)Cn1cncn1` (centres unmarked) [Triticonazol], the Observed efficacy in the assay with Phytophthora infestans (16 ppm) was determined as 0%; in the assay on Pyricularia oryzae (1 ppm), 1%; in the assay on Pyricularia oryzae (4 ppm) it was 59%.
With `OC(Cc1ccccc1Cl)(Cn1nc[nH]c1=S)C1(Cl)CC1` (centres unmarked) [Prothioconazol], the Observed efficacy with Septoria tritici (setting [4]) came out at 17%; in the assay on Alternaria solani (solo 1 ppm), 66; in the assay on Botrytis cinerea (solo 1 ppm), 36; in the assay with Botrytis cinerea (solo 4 ppm), 72; in the assay on Leptosphaeria nodorum (solo 1 ppm) it was 43.
As to `CO/N=C(/C1=NOCCO1)c1ccccc1Oc1ncnc(Oc2ccccc2Cl)c1F` [II-37, fluoxastrobin, reference compound], in the assay with Alternaria solani (solo 0.016 ppm), the Observed efficacy was 11.
Take `O=C(Nc1ccccc1-c1ccc(Cl)cc1)c1cccnc1Cl` [II-7, boscalid, reference compound]: the Observed efficacy with Alternaria solani (solo 0.001 ppm) is 5; with Alternaria solani (solo 0.004 ppm) it was 6; in the assay on Leptosphaeria nodorum (solo 4 ppm) it was 23.
`CCC(=O)C1=C([O-])CC(C(=O)[O-])CC1=O.[Ca+2]` (centres unmarked) [Prohexadion-Ca]: the Observed efficacy in the assay with Septoria tritici (setting [1]) is 15%; with Alternaria solani (solo 4 ppm), 6; in the assay with Alternaria solani (solo 16 ppm), 2; with Alternaria solani (solo 63 ppm), 2; with Botrytis cinerea (solo 4 ppm), 10; in the assay with Botrytis cinerea (solo 16 ppm), 5. The Observed efficacy with Botrytis cinerea (solo 63 ppm) amounted to 4; with Leptosphaeria nodorum (solo 63 ppm), 23.
In turn, `N#Cc1c(Cl)c(Cl)c(Cl)c(C#N)c1Cl` [II-11, chlorothalonil, reference compound] gave an Observed efficacy with Leptosphaeria nodorum (solo 1 ppm) of 28.
With `CON=C(C(=O)OC)c1ccccc1CON=C(C)c1cccc(C(F)(F)F)c1` [II-92, trifloxystrobin, reference compound], the Observed efficacy with Alternaria solani (solo 0.004 ppm) came out at 7; with Alternaria solani (solo 0.016 ppm) it was 11. Besides, the inhibition of growth at 1 ppm with Phytophthora infestans (setting [3]) was determined as 37%.
For the molecule `CC1COC(Cn2cncn2)(c2ccc(Oc3ccc(Cl)cc3)cc2Cl)O1` (centres unmarked) [Difenoconazol], the Observed efficacy in the assay on Septoria tritici (setting [4]) amounted to 26%; in the assay with Alternaria solani (solo 0.004 ppm), 5; in the assay on Alternaria solani (solo 0.016 ppm) it was 5; in the assay on Leptosphaeria nodorum (solo 0.016 ppm), 29; with Phytophthora infestans (4 ppm), 30.
Take `Fc1ccc([C@]2(Cn3cncn3)O[C@H]2c2ccccc2Cl)cc1` [Epoxiconazol]: the Observed efficacy with Septoria tritici (setting [4]) worked out at 16%; in the assay on Alternaria solani (solo 0.004 ppm), 5; with Alternaria solani (solo 0.016 ppm), 8; with Botrytis cinerea (solo 0.016 ppm), 11; with Phytophthora infestans (4 ppm), 27.
For `O=c1c2cc(F)ccc2nc(-n2cncn2)n1-c1ccc(Cl)cc1Cl` [Fluquinconazol], the Observed efficacy in the assay on Septoria tritici (0.004 ppm) is 0%; with Phytophthora infestans (4 ppm), 0%; with Pyricularia oryzae (1 ppm), 1%.
As for `CCOC(=O)C1CC(=O)C(=C(O)C2CC2)C(=O)C1` (centres unmarked) [II-3a, trinexapac-ethyl, reference compound], the Observed efficacy in the assay on Septoria tritici (second Septtr microtest, 4 ppm) is 13%; with Alternaria solani (solo 4 ppm), 12; in the assay on Alternaria solani (solo 16 ppm) it was 27. Further, the inhibition of growth at 63 ppm with Leptosphaeria nodorum (Parastagonospora nodorum, 168 h, solo 63 ppm, read-out: Observed efficacy) turned out to be 17%.
Take `Cn1cc(C(=O)Nc2ccccc2-c2cc(F)c(F)c(F)c2)c(C(F)F)n1` [II-42, fluxapyroxad, reference compound]: the Observed efficacy was determined as 4 in the assay with Alternaria solani (solo 0.001 ppm) and 4% in the assay with Alternaria solani (solo product, 0.001 ppm).
In the case of `C[N+]1(C)CCCCC1.[Cl-]` [Mepiquat-cl], the Observed efficacy with Septoria tritici (setting [1]) is on record as 16%; with Alternaria solani (solo 16 ppm) it was 10; in the assay with Alternaria solani (solo 63 ppm) it was 16; in the assay with Botrytis cinerea (solo 16 ppm) it was 11; with Leptosphaeria nodorum (solo 63 ppm), 28.
Turning to `Cc1ccc(C(C)NC(=O)[C@@H](NC(=O)OC(C)C)C(C)C)cc1` (some centres unmarked) [II-51, iprovalicarb, reference compound], the Observed efficacy in the assay with Alternaria solani (solo 4 ppm) was 1; in the assay with Alternaria solani (solo 16 ppm) it was 2; with Alternaria solani (solo 63 ppm), 1; in the assay on Botrytis cinerea (solo 4 ppm) it was 2; in the assay on Botrytis cinerea (solo 16 ppm), 3; in the assay on Botrytis cinerea (solo 63 ppm), 6. Further, the Observed efficacy in the assay on Leptosphaeria nodorum (solo 16 ppm) is 19.
With `Cc1ccc(-c2c(Cl)nc(C#N)n2S(=O)(=O)N(C)C)cc1` [II-12, cyazofamid, reference compound], the Observed efficacy is recorded as 40% in the assay on Septoria tritici (setting [5]), 14 in the assay on Alternaria solani (solo 4 ppm) and 35 with Alternaria solani (solo 16 ppm).
On to `N#Cc1nn(-c2c(Cl)cc(C(F)(F)F)cc2Cl)c(N)c1[S+]([O-])C(F)(F)F` (centres unmarked) [II-20c, fipronil, reference compound], for which the Observed efficacy in the assay on Alternaria solani (solo 1 ppm) worked out at 6; with Alternaria solani (solo 4 ppm), 2.
Take `COC(=O)Nc1nc2ccccc2[nH]1` [II-8, carbendazim, reference compound]: the Observed efficacy was 16% with Septoria tritici (setting [5]), 7 with Alternaria solani (solo 4 ppm), 10 in the assay with Alternaria solani (solo 16 ppm) and 34 in the assay with Alternaria solani (solo 63 ppm). The inhibition of growth at 4 ppm in the assay on Phytophthora infestans (setting [3]) stood at 24%.
Turning to `CO/C=C(/C(=O)OC)c1ccccc1Oc1cc(Oc2ccccc2C#N)ncn1` [II-3, azoxystrobin, reference compound], the Observed efficacy was determined as 6 in the assay on Alternaria solani (solo 0.004 ppm), 14 with Alternaria solani (solo 0.016 ppm), 14 with Botrytis cinerea (solo 4 ppm) and 23 with Botrytis cinerea (solo 16 ppm).
As to `CCCCCCCCc1c(CC)nc2ncnn2c1N` [II-1, ametoctradin, reference compound], the Observed efficacy with Alternaria solani (solo 4 ppm) was determined as 5; with Alternaria solani (solo 16 ppm), 2; in the assay on Alternaria solani (solo 63 ppm) it was 6; with Botrytis cinerea (solo 16 ppm) it was 3; in the assay with Botrytis cinerea (solo 63 ppm), 4.
For `CC1(C)CCC(Cc2ccc(Cl)cc2)C1(O)Cn1cncn1` (centres unmarked) [Metconazol], the Observed efficacy in the assay on Septoria tritici (setting [4]) was determined as 24%; with Alternaria solani (solo 0.016 ppm), 17.
